Columns and labels:
[1] = system: HEp-2 (larynx cancer cells); assay: 48 h incubation with the salts: cell fluorescence, living cells, multiplication coefficient (Table 3); type: cell-based, Human; conditions: 48 hs, 50 mcg/ml
Method: (§1) New compounds of formula 1 were tested on cell lines. Use was made of 9 different neoplastic cell lines which were incubated for 48 hs with various new salts of protoporphyrin and with a new salt of the conventionally applied HpD preparation/hematoporphyrin derivatives/obtained according to Lipson et al. All compounds were used in the form of aqueous solutions, at a concentration of 50 mcg/ml. Determination was made of:
(§2) 1/ Cell fluorescence /F/: after 48 hs incubation, the cells were washed away, the intensity of fluorescence was measured in a fluorescence microscope and was expressed on an arbitrary scale of 0-4 scores;
(§3) 2/ Percentage of living cells /P %/ after 48 hs incubation;
(§4) 3/ Cell multiplication coefficient /M/ in the presence of different preparations, expressed as: [formula]
Hep-2 larynx cancer cells

[2] = system: MA-104 (Rhesus monkey embryo kidney cancer cells); assay: 48 h incubation with the salts: cell fluorescence, living cells, multiplication coefficient (Table 1); type: cell-based; conditions: 48 hs, 50 mcg/ml
Method: as §1, §2, §3, §4

PZ = assay: as above; type: cell-based; conditions: 48 hs, 50 mcg/ml
Method: as §1, §2, §3, §4

CL = assay: as above; type: cell-based; conditions: 48 hs, 50 mcg/ml
Method: as §1, §2, §3, §4

[3] = system: Mm (Mm5MT/C1, mammary gland cancer cells of C3H-strain mice); assay: 48 h incubation with the salts: cell fluorescence, living cells, multiplication coefficient (Table 3); type: cell-based, Murine; conditions: for Cell fluorescence /F/ / Cell multiplication coefficient /M/ / Percentage of living cells /P %/: Mm, 48 hs, 50 mcg/ml
Method: as §1, §2, §3, §4
mammary gland cancer cells of C3H-strain mice

[4] = system: T-47D (breast cancer cells); assay: as above; type: cell-based, Human; conditions: 48 hs, 50 mcg/ml
Method: as §1, §2, §3, §4
T-47D breast cancer cells

[5] = system: KB (oral cavity cancer cells); assay: 48 h incubation with the salts: cell fluorescence, living cells, multiplication coefficient (Table 2); type: cell-based, Human; conditions: 48 hs, 50 mcg/ml
Method: as §1, §2, §3, §4
KB oral cavity cancer cells

[6] = system: GR (GRMT/F6, mammary gland cancer cells of GR-strain mice); assay: as above; type: cell-based, Murine; conditions: 48 hs, 50 mcg/ml
Method: as §1, §2, §3, §4
GRMT/F6 mammary gland cancer cells of GR-strain mice

[7] = system: Hela (cervix uteri cancer cells); assay: 48 h incubation with the salts: cell fluorescence, living cells, multiplication coefficient (Table 1); type: cell-based, Human; conditions: 48 hs, 50 mcg/ml
Method: as §1, §2, §3, §4

[8] = system: HBT-39/w (breast cancer cells); assay: 48 h incubation with the salts: cell fluorescence, living cells, multiplication coefficient (Table 2); type: cell-based, Human; conditions: 48 hs, 50 mcg/ml
Method: as §1, §2, §3, §4

CC1=C(CCC(=O)O)c2cc3[nH]c(cc4nc(cc5[nH]c(cc1n2)c(C(C)NC(CS)C(=O)O)c5C)C(C(C)NC(CS)C(=O)O)=C4C)c(C)c3CCC(=O)O.N=C(N)NCCC[C@H](N)C(=O)O.N=C(N)NCCC[C@H](N)C(=O)O (stereo not drawn) [PP/Cys/2 /Arg/2, l-arginine di/N-cysteyl/-protoporphyrinate]
Cell fluorescence /F/ [1]: ++++
Cell multiplication coefficient /M/ [1]: 0,32
Percentage of living cells /P %/ [1]: 60%
Cell fluorescence /F/ [2]: ++
Cell multiplication coefficient /M/ [2]: 0,16
Percentage of living cells /P %/ [2]: 11%
Cell fluorescence /F/ (PZ): +
Cell multiplication coefficient /M/ (PZ): 0,40
Percentage of living cells /P %/ (PZ): 40%
Cell fluorescence /F/ (CL): -
Cell multiplication coefficient /M/ (CL): 0,30
Percentage of living cells /P %/ (CL): 30%
Cell fluorescence /F/ [3]: +++
Cell multiplication coefficient /M/ [3]: 0,73
Percentage of living cells /P %/ [3]: 40%
Cell fluorescence /F/ [4]: +
Cell multiplication coefficient /M/ [4]: 0,84
Percentage of living cells /P %/ [4]: 26%
Cell fluorescence /F/ [5]: +
Cell multiplication coefficient /M/ [5]: 0,12
Percentage of living cells /P %/ [5]: 12%
Cell fluorescence /F/ [6]: +++
Cell multiplication coefficient /M/ [6]: 0,75
Percentage of living cells /P %/ [6]: 50%
Cell fluorescence /F/ [7]: ++
Cell multiplication coefficient /M/ [7]: 0,43
Percentage of living cells /P %/ [7]: 55%
Cell fluorescence /F/ [8]: +
Cell multiplication coefficient /M/ [8]: 0,53
Percentage of living cells /P %/ [8]: 42%

CC1=C(CCC(=O)O)c2cc3[nH]c(cc4nc(cc5[nH]c(cc1n2)c(C(C)NC(Cc1ccccc1)C(=O)O)c5C)C(C(C)NC(Cc1ccccc1)C(=O)O)=C4C)c(C)c3CCC(=O)O.N=C(N)NCCC[C@H](N)C(=O)O.N=C(N)NCCC[C@H](N)C(=O)O (stereo not drawn) [PP/Fen/2 /Arg/2, l-arginine di/N-phenylalanyl/protoporphyrinate]
Cell fluorescence /F/ [1]: ++
Cell multiplication coefficient /M/ [1]: 0,08
Percentage of living cells /P %/ [1]: 3%
Cell fluorescence /F/ [2]: ++
Cell multiplication coefficient /M/ [2]: 0,35
Percentage of living cells /P %/ [2]: 35%
Cell fluorescence /F/ (PZ): +
Cell multiplication coefficient /M/ (PZ): 0,08
Percentage of living cells /P %/ (PZ): 8%
Cell fluorescence /F/ (CL): ++
Cell multiplication coefficient /M/ (CL): 0
Percentage of living cells /P %/ (CL): 0%
Cell fluorescence /F/ [3]: ++++
Cell multiplication coefficient /M/ [3]: 0,37
Percentage of living cells /P %/ [3]: 12%
Cell fluorescence /F/ [4]: +
Cell multiplication coefficient /M/ [4]: 0,60
Percentage of living cells /P %/ [4]: 60%
Cell fluorescence /F/ [5]: ++
Cell multiplication coefficient /M/ [5]: 0,12
Percentage of living cells /P %/ [5]: 12%
Cell fluorescence /F/ [6]: +++
Cell multiplication coefficient /M/ [6]: 0
Percentage of living cells /P %/ [6]: 0%
Cell fluorescence /F/ [7]: +++
Cell multiplication coefficient /M/ [7]: 0,14
Percentage of living cells /P %/ [7]: 5%
Cell fluorescence /F/ [8]: ++++
Cell multiplication coefficient /M/ [8]: 0,11
Percentage of living cells /P %/ [8]: 11%

CC1=C(CCC(=O)O)c2cc3[nH]c(cc4nc(cc5[nH]c(cc1n2)c(C(C)NC(CCC(=O)O)C(=O)O)c5C)C(C(C)NC(CCC(=O)O)C(=O)O)=C4C)c(C)c3CCC(=O)O.N=C(N)NCCC[C@H](N)C(=O)O.N=C(N)NCCC[C@H](N)C(=O)O (stereo not drawn) [PP/Glu/2 /Arg/2, l-arginine di/N-glutamyl/-protoporphyrinate]
Cell fluorescence /F/ [1]: ++++
Cell multiplication coefficient /M/ [1]: 0,08
Percentage of living cells /P %/ [1]: 15%
Cell fluorescence /F/ [2]: -
Cell multiplication coefficient /M/ [2]: 0,16
Percentage of living cells /P %/ [2]: 15%
Cell fluorescence /F/ (PZ): +
Cell multiplication coefficient /M/ (PZ): 0,15
Percentage of living cells /P %/ (PZ): 15%
Cell fluorescence /F/ (CL): -
Cell multiplication coefficient /M/ (CL): 0,45
Percentage of living cells /P %/ (CL): 45%
Cell fluorescence /F/ [3]: +++
Cell multiplication coefficient /M/ [3]: 0,70
Percentage of living cells /P %/ [3]: 76%
activity in studies of the Mm5MT/C1 cell line (in words) ([3]; mammary gland cancer of C3H mice): least effective against this type of neoplasm
Cell fluorescence /F/ [4]: +++
Cell multiplication coefficient /M/ [4]: 0,80
Percentage of living cells /P %/ [4]: 49%
Cell fluorescence /F/ [5]: ++++
Cell multiplication coefficient /M/ [5]: 0,08
Percentage of living cells /P %/ [5]: 8%
Cell fluorescence /F/ [6]: +
Cell multiplication coefficient /M/ [6]: 0,75
Percentage of living cells /P %/ [6]: 75%
Cell fluorescence /F/ [7]: ++
Cell multiplication coefficient /M/ [7]: 0,16
Percentage of living cells /P %/ [7]: 33%
Cell fluorescence /F/ [8]: +
Cell multiplication coefficient /M/ [8]: 0,73
Percentage of living cells /P %/ [8]: 66%

Source: patent US5451599A, “Complex salts of hematoporphyrin and of its derivatives, their synthesis, and therapeutic agent” (Wojskowa Akademia Techniczna im. Jaroslawa Dabrowskiego, priority 1991, dated 1995)
